This is an account of results in PubChem BioAssay AID330 (DTP/NCI, 2004).

“And” between values parts separate entries of the source, which are not always exact repeats. Identical values can stand only once. Inconclusive results and toxic doses are left out. Square brackets hold non-standard residues; d marks the D form. Peptide text beside a SMILES is read from it. * marks the point of attachment. Cbz = O=C(OCc1ccccc1)*; Nva = CCC[CH](N)C(=O)O

The subject of the test is P388 leukemia ip, CD2F1 mice, survival T/C. As to the kind of experiment: NCI In Vivo Anticancer Drug Screen. Data for tumor model P388 Leukemia (intraperitoneal) in CD2F1 (CDF1) mice. Particulars: endpoint: median survival time, higher = longer survival. In outline:
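Mice carrying the transplanted tumor received test compound or vehicle. Survival was recorded in each group, and the value is the treated-group measurement divided by that of the vehicle-treated control group.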

Where [1] appears, read: dose: 50.0 mg/kg/injection, schedule: Q01DX005 (ip), vehicle: Klucel (hydroxypropylcellulose) (HPC).
Setting [2] is: dose: 100.0 mg/kg/injection, schedule: Q01DX005 (ip), vehicle: Klucel (hydroxypropylcellulose) (HPC).
Where [3] appears, read: dose: 200.0 mg/kg/injection, schedule: Q01DX005 (ip), vehicle: Klucel (hydroxypropylcellulose) (HPC).
Setting [4] is: dose: 12.5 mg/kg/injection, schedule: Q01DX009 (ip), vehicle: saline with Tween-80.
Where [5] appears, read: dose: 25.0 mg/kg/injection, schedule: Q01DX009 (ip), vehicle: saline with Tween-80.
The mark [6] stands for this setting: dose: 50.0 mg/kg/injection, schedule: Q01DX009 (ip), vehicle: saline with Tween-80.
Where [7] appears, read: dose: 50.0 mg/kg/injection, schedule: Q01DX009 (ip), vehicle: saline.
Where [8] appears, read: dose: 100.0 mg/kg/injection, schedule: Q01DX009 (ip), vehicle: saline.
[9] abbreviates: dose: 60.0 mg/kg/injection, schedule: Q01DX005 (ip), vehicle: saline with Tween-80.
Where [10] appears, read: dose: 120.0 mg/kg/injection, schedule: Q01DX005 (ip), vehicle: saline with Tween-80.
The mark [11] stands for this setting: dose: 240.0 mg/kg/injection, schedule: Q01DX005 (ip), vehicle: saline with Tween-80.
Setting [12] is: dose: 100.0 mg/kg/injection, schedule: Q01DX009 (ip), vehicle: saline with Tween-80.
The mark [13] stands for this setting: dose: 50.0 mg/kg/injection, schedule: Q01DX005 (ip), vehicle: saline with Tween-80.
Setting [14] is: dose: 100.0 mg/kg/injection, schedule: Q01DX005 (ip), vehicle: saline with Tween-80.
Where [15] appears, read: dose: 200.0 mg/kg/injection, schedule: Q01DX005 (ip), vehicle: saline with Tween-80.

Take `O=C(NC(Cc1ccc(I)cc1)C(=O)O)c1cccc(Cl)c1` (stereo unspecified): the T/C is 99 % of control under setting [1], 108 % of control under setting [2] and 108 % of control under setting [3].

Take `O=c1c2c([nH]c(=S)n1-c1ccccc1)NCCC2`: the T/C runs as follows: (dose: 50.0 mg/kg/injection, schedule: Q04DX003 (ip), vehicle: Klucel (hydroxypropylcellulose) (HPC)) 101 % of control; (dose: 100.0 mg/kg/injection, schedule: Q04DX003 (ip), vehicle: Klucel (hydroxypropylcellulose) (HPC)) 101 % of control; (dose: 200.0 mg/kg/injection, schedule: Q04DX003 (ip), vehicle: Klucel (hydroxypropylcellulose) (HPC)) 111 % of control.

As for `C=CC(=O)P(=O)(OCC)OCC`, the T/C is, setting by setting: (dose: 100.0 mg/kg/injection, schedule: Q04DX002 (ip), vehicle: saline) 107 % of control; (dose: 200.0 mg/kg/injection, schedule: Q04DX002 (ip), vehicle: saline) 103 % of control; (dose: 400.0 mg/kg/injection, schedule: Q04DX002 (ip), vehicle: saline) 98 % of control.

For `CN(C)c1c2c(oc(=O)c1Cl)-c1ccccc1OCC2`, the T/C (dose: 60.0 mg/kg/injection, schedule: Q01DX005 (ip), vehicle: Klucel (hydroxypropylcellulose) (HPC)) is 101 % of control; the T/C (dose: 120.0 mg/kg/injection, schedule: Q01DX005 (ip), vehicle: Klucel (hydroxypropylcellulose) (HPC)) is 103 % of control; the T/C (dose: 240.0 mg/kg/injection, schedule: Q01DX005 (ip), vehicle: Klucel (hydroxypropylcellulose) (HPC)) is 107 % of control.

Take `CC(=O)OC(C(Br)CBr)C(OC(C)=O)C(Br)CBr` (stereo unspecified): the T/C is 104 % of control (dose: 7.5 mg/kg/injection, schedule: Q01DX009 (ip), vehicle: saline); 110 % of control (dose: 15.0 mg/kg/injection, schedule: Q01DX009 (ip), vehicle: saline); 106 % of control (dose: 30.0 mg/kg/injection, schedule: Q01DX009 (ip), vehicle: saline).

Regarding `O=C(O)c1ccc2ncc(-c3ccccc3)nc2c1`, the T/C by setting is: under setting [1], 100 % of control; under setting [2], 100 % of control; under setting [3], 95 % of control.

Take `CCCC(NC(=O)OCc1ccccc1)C(=O)NC(Cc1ccccc1)C(=O)O` (stereo unspecified) (Cbz-[Nva]-Phe-OH; configuration not given here): the T/C under setting [1] is 108 % of control, the T/C under setting [2] is 106 % of control and the T/C under setting [3] was 100 % of control.

On to `Cc1cccc2c(C(=O)O)cc(-c3ccc(Cl)cc3)nc12`, for which the T/C under setting [4] is 104 % of control, the T/C under setting [5] was 99 % of control and the T/C under setting [6] is 108 % of control.

For the molecule `CCOC(=O)NCCCCC([NH-])C(=O)O.CCOC(=O)NCCCCC([NH-])C(=O)O.[Cu+2]` (stereo unspecified), the T/C runs as follows: under setting [7], 101 % of control; under setting [8], 92 % of control.

Take `Cc1ccnc(NS(=O)(=O)c2ccc(NCc3c4ccccc4nc4cc(Cl)ccc34)cc2)n1`: the T/C is 99 % of control under setting [9], 90 % of control under setting [10] and 86 % of control under setting [11].

Regarding `CCCn1c(C)nc2c([N+](=O)[O-])cc(C(F)(F)F)cc21`, the T/C was 98 % of control under setting [9], 97 % of control under setting [10] and 99 % of control under setting [11].

`Nc1nnc(SCc2ccccc2)s1`: the T/C reads like this: (dose: 3.13 mg/kg/injection, schedule: Q01DX009 (ip), vehicle: saline with Tween-80) 102 % of control; (dose: 6.25 mg/kg/injection, schedule: Q01DX009 (ip), vehicle: saline with Tween-80) 104 % of control; under setting [4], 109 % of control; under setting [5], 103 % of control.

As for `O=C(O)C(CS)NSc1ccccc1[N+](=O)[O-]` (stereo unspecified), the T/C runs as follows: under setting [9], 111 % of control; under setting [10], 112 % of control; under setting [11], 102 % of control.

Consider `CCOC(=O)C(Cc1c[nH]c2ccccc12)NCc1ccc(N(CCCl)CCCl)cc1` (stereo unspecified), for which the T/C was 94 % of control (dose: 10.0 mg/kg/injection, schedule: Q01DX009 (ip), vehicle: saline with Tween-80); 110 % of control (dose: 20.0 mg/kg/injection, schedule: Q01DX009 (ip), vehicle: saline with Tween-80); 110 % of control (dose: 40.0 mg/kg/injection, schedule: Q01DX009 (ip), vehicle: saline with Tween-80); 97 % of control under setting [6]; 123 % of control (dose: 80.0 mg/kg/injection, schedule: Q01DX009 (ip), vehicle: saline with Tween-80); 106 % of control under setting [12].

For `OC1(c2ccc(Cl)cc2)c2ccccc2COc2ccccc21` (stereo unspecified), the T/C is 102 % of control (dose: 100.0 mg/kg/injection, schedule: Q01DX001 (ip), vehicle: Klucel (hydroxypropylcellulose) (HPC)); 100 % of control (dose: 200.0 mg/kg/injection, schedule: Q01DX001 (ip), vehicle: Klucel (hydroxypropylcellulose) (HPC)); 100 % of control (dose: 400.0 mg/kg/injection, schedule: Q01DX001 (ip), vehicle: Klucel (hydroxypropylcellulose) (HPC)).

Regarding `CC1=C(C)C(=O)c2cc3c(-c4ccccc4)oc(-c4ccccc4)c3cc2C1=O`, the T/C is 93 % of control (dose: 12.5 mg/kg/injection, schedule: Q01DX005 (ip), vehicle: saline with Tween-80); 95 % of control (dose: 25.0 mg/kg/injection, schedule: Q01DX005 (ip), vehicle: saline with Tween-80); 86 % of control and 96 % of control under setting [13].

On to `Oc1c(Cl)cc(Cl)cc1C=NCCN(CCN=Cc1cc(Cl)cc(Cl)c1O)CCN=Cc1cc(Cl)cc(Cl)c1O`, for which the T/C is, setting by setting: under setting [1], 98 % of control; under setting [2], 92 % of control; under setting [3], 101 % of control.

Consider `[Cl][Eu][Cl]`, for which the T/C by setting is: under setting [7], 87 % of control; under setting [8], 91 % of control.

Regarding `COC[C@H]1OC(=O)c2coc3c2[C@@]1(C)C1=C(C3=O)[C@@H]2CCC(=O)[C@@]2(C)C[C@H]1OC(C)=O`, the T/C was 115 % of control (dose: 0.31 mg/kg/injection, schedule: Q01DX009 (ip), vehicle: saline with Tween-80); 99 % of control and 90 % of control (dose: 2.5 mg/kg/injection, schedule: Q01DX009 (ip), vehicle: saline with Tween-80).

As to `CC[CH2][Sn]([CH2]CC)([CH2]CC)[CH2]CCBr`, the T/C is 106 % of control under setting [6] and 100 % of control under setting [12].

`COC(OC(CO)C(O)S(=O)(=O)O)C(O)S(=O)(=O)O` (stereo unspecified): the T/C was 100 % of control (dose: 6.25 mg/kg/injection, schedule: Q01DX009 (ip), vehicle: saline); 105 % of control (dose: 12.5 mg/kg/injection, schedule: Q01DX009 (ip), vehicle: saline); 118 % of control (dose: 25.0 mg/kg/injection, schedule: Q01DX009 (ip), vehicle: saline); 173 % of control under setting [7]; 155 % of control under setting [8]; 157 % of control (dose: 200.0 mg/kg/injection, schedule: Q01DX009 (ip), vehicle: saline).

Regarding `COc1cccc2c1ccc1nonc12`, the T/C reads like this: under setting [13], 95 % of control; under setting [14], 88 % of control; under setting [15], 86 % of control.

For `CSCSCC(CO)NC(=O)/C=C/c1c[nH]c(=O)[nH]c1=O` (stereo unspecified), the T/C is, setting by setting: (dose: 1.0 mg/kg/injection, schedule: Q01DX009 (ip), vehicle: other) 92 % of control; (dose: 2.0 mg/kg/injection, schedule: Q01DX009 (ip), vehicle: other) 97 % of control; (dose: 4.0 mg/kg/injection, schedule: Q01DX009 (ip), vehicle: other) 98 % of control; (dose: 8.0 mg/kg/injection, schedule: Q01DX009 (ip), vehicle: other) 93 % of control; (dose: 16.0 mg/kg/injection, schedule: Q01DX009 (ip), vehicle: other) 102 % of control; (dose: 32.0 mg/kg/injection, schedule: Q01DX009 (ip), vehicle: other) 107 % of control.

Turning to `CC(C)N(B1NCC(C)N1C(C)C)C(C)C` (stereo unspecified), the T/C by setting is: (dose: 100.0 mg/kg/injection, schedule: Q01DX001 (ip), vehicle: saline) 101 % of control; (dose: 200.0 mg/kg/injection, schedule: Q01DX001 (ip), vehicle: saline) 102 % of control; (dose: 400.0 mg/kg/injection, schedule: Q01DX001 (ip), vehicle: saline) 100 % of control.

For `CCCCCCCCCCCCCCCCCC(=O)NC1c2ccccc2Oc2ccccc21`, the T/C under setting [13] was 87 % of control, the T/C under setting [14] is 90 % of control and the T/C under setting [15] is 92 % of control.
